From US10544120B2, “Biaryl kinase inhibitors” (BRISTOL-MYERS SQUIBB COMPANY, priority 2015, dated 2020)

molecular target: GST-Xa-hAAK1 (Homo sapiens (Human), UniProt Q2M2I8); assay: AAK1 Kinase Assay; type: biochemical; conditions: bacterially expressed GST-Xa-hAAK1 3.5 nM; ATP 22 μM; fluoresceinated peptide 1.5 μM; 3 hours at room temperature; Caliper LabChip 3000
Experimental: The assays were performed in U-bottom 384-well plates. […] The reactions were initiated by the combination of bacterially expressed, GST-Xa-hAAK1 with substrates and test compounds. The reactions were incubated at room temperature for 3 hours and terminated by adding 60 μl of 35 mM EDTA buffer to each sample. The reactions were analyzed on the Caliper LabChip 3000 (Caliper, Hopkinton, Mass.) by electrophoretic separation of the fluorescent substrate and phosphorylated product. […] Compounds were dissolved at 10 mM in dimethylsulfoxide (DMSO) and evaluated at eleven concentrations. IC50 values were derived by non-linear regression analysis.

Chain of GST-Xa-hAAK1 (Q2M2I8 whole entry): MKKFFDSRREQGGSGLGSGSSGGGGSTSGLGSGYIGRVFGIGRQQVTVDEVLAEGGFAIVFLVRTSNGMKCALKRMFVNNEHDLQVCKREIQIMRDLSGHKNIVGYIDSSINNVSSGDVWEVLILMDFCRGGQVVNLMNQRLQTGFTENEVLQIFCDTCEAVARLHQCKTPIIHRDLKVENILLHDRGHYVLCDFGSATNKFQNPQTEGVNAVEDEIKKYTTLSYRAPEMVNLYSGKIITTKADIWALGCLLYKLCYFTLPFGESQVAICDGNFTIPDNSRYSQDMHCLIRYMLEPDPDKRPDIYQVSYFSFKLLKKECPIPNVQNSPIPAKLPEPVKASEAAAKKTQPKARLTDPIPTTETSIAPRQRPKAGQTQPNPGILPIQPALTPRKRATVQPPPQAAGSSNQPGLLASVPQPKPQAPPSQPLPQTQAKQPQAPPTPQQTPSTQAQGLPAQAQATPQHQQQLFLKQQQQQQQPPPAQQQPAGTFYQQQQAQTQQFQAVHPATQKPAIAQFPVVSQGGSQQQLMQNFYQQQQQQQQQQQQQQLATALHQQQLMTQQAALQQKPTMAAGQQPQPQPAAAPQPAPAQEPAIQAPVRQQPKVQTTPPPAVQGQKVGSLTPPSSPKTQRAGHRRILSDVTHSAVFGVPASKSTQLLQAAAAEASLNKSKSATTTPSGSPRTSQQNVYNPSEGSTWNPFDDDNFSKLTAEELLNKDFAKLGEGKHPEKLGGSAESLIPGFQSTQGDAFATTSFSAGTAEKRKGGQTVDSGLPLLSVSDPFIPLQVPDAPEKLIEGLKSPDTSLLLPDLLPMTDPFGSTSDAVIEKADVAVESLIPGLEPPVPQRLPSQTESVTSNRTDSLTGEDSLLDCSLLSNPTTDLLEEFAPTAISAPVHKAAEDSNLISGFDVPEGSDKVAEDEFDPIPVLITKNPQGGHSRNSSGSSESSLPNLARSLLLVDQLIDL

SMILES | IC50
CCc1cc(-c2ccc(OC[C@@](C)(N)CC(C)C)c(C#N)c2)ncn1 [Example 443, (S)-2-((2-amino-2,4-dimethylpentyl)oxy)-5-(6-ethylpyrimidin-4-yl)benzonitrile] | 46 nM
Cc1nccc(-c2ccc(OC[C@@](C)(N)CC(C)C)c(CF)n2)n1 [Example 279] | 23 nM
Cc1nccc(-c2cc(C#N)c(OC[C@@](C)(N)CC(C)C)cn2)n1 [Example 487, (S)-5-(2-amino-2,4-dimethylpentyloxy)-2-(2-methylpyrimidin-4-yl)isonicotinonitrile] | 1290 nM
Cc1cc(-c2ccc(OC[C@@](C)(N)CC(C)C)c(C(F)(F)F)c2)nc(C)n1 [Example 479, (S)-1-(4-(2,6-dimethylpyrimidin-4-yl)-2-(trifluoromethyl)phenoxy)-2,4-dimethylpentan-2-amine] | 533 nM
Cc1cc(-c2cc(C(F)(F)F)c(OCC(C)(N)CC(C)C)cn2)ccn1 (stereo in doubt) [Example 164, (R)-2,4-dimethyl-1-((2′-methyl-4-(trifluoromethyl)-[2,4′-bipyridin]-5-yl)oxy)pentan-2-amine] | 254 nM
Cc1cc(-c2ccc(OC[C@@](C)(N)CC(C)C)c(C(F)(F)F)c2)ncn1 [Example 309, (S)-2,4-dimethyl-1-(4-(6-methylpyrimidin-4-yl)-2-(trifluoromethyl)phenoxy)pentan-2-amine] | 8.5 nM
COC(=O)Nc1cc(-c2ccc(OC[C@@](C)(N)CC(C)C)c(C#N)c2)cnn1 [Example 300, (S)-methyl (5-(4-((2-amino-2,4-dimethylpentyl)oxy)-3-cyanophenyl)pyridazin-3-yl)carbamate] | 246 nM
CC(C)C[C@](C)(N)COc1ccc(-c2ccnc(N)c2)cc1C(F)(F)F [Example 297, (S)-4-(4-((2-amino-2,4-dimethylpentyl)oxy)-3-(trifluoromethyl)phenyl)pyridin-2-amine] | 0.3 nM
COC(=O)Nc1cc(-c2cnc(OC[C@@](C)(N)CC(C)C)c(Cl)c2)ncn1 [Example 437, (S)-methyl (6-(6-((2-amino-2,4-dimethylpentyl)oxy)-5-chloropyridin-3-yl)pyrimidin-4-yl)carbamate] | 2.2 nM
CC(C)C[C@](C)(N)COc1ccc(-c2cc(N)ncn2)cc1Cl [Example 285, (S)-6-(4-((2-amino-2,4-dimethylpentyl)oxy)-3-chlorophenyl)pyrimidin-4-amine] | 1.1 nM
COc1nccc(-c2ccc(OC[C@@](C)(N)CC(C)C)c(C(F)(F)F)c2)n1 [Example 316, (S)-1-(4-(2-methoxypyrimidin-4-yl)-2-(trifluoromethyl)phenoxy)-2,4-dimethylpentan-2-amine] | 8.2 nM
COC(=O)Nc1nccc(-c2ccc(OC[C@@](C)(N)CC(C)C)c(C(F)F)n2)n1 [Example 323, (S)-methyl (4-(5-((2-amino-2,4-dimethylpentyl)oxy)-6-(difluoromethyl)pyridin-2-yl)pyrimidin-2-yl)carbamate] | 0.8 nM
Cc1nccc(-c2ccc(OC[C@@](C)(N)CC(C)C)c(C(F)(F)F)c2)n1 [Example 290, (S)-2,4-dimethyl-1-(4-(2-methylpyrimidin-4-yl)-2-(trifluoromethyl)phenoxy)pentan-2-amine] | 0.6 nM
COC(=O)Nc1nccc(-c2ccc(OC[C@@](C)(N)CC(C)C)c(C(F)(F)F)c2)n1 [Example 306, (S)-methyl(4-(4-((2-amino-2,4-dimethylpentyl)oxy)-3-(trifluoromethyl)phenyl)pyrimidin-2-yl)carbamate] | 0.6 nM
CC(C)C[C@](C)(N)COc1ccc(-c2ccnc(C(F)F)n2)cc1C#N [Example 315, (S)-2-((2-amino-2,4-dimethylpentyl)oxy)-5-(2-(difluoromethyl)pyrimidin-4-yl)benzonitrile] | 1.5 nM
COC(=O)Nc1nccc(-c2cnc(OC[C@](C)(N)CC(C)C)c(Cl)c2)n1 [Example 304, (R)-methyl(4-(6-((2-amino-2,4-dimethylpentyl)oxy)-5-chloropyridin-3-yl)pyrimidin-2-yl)carbamate] | 298 nM
CC(C)C[C@](C)(N)COc1ccc(-c2ccnc(C(F)F)c2)nc1CF [Example 325, (S)-1-((2′-(difluoromethyl)-6-(fluoromethyl)-[2,4′-bipyridin]-5-yl)oxy)-2,4-dimethylpentan-2-amine] | 1.8 nM
Cc1cc(-c2cnc(OC[C@@](C)(N)CC(C)C)c(C)c2)ncn1 [Example 446, (S)-2,4-dimethyl-1-((3-methyl-5-(6-methylpyrimidin-4-yl)pyridin-2-yl)oxy)pentan-2-amine] | 317 nM
CC(C)C[C@](C)(N)COc1ccc(-c2cc(Cl)ncn2)cc1C#N [Example 441, (S)-2-((2-amino-2,4-dimethylpentyl)oxy)-5-(6-chloropyrimidin-4-yl)benzonitrile] | 15 nM
Cc1nccc(-c2ccc(OC[C@@](C)(N)CC(C)C)c(C(F)(F)F)n2)n1 [Example 454, (S)-2,4-dimethyl-1-((6-(2-methylpyrimidin-4-yl)-2-(trifluoromethyl)pyridin-3-yl)oxy)pentan-2-amine] | 2.4 nM
Cc1nccc(-c2ccc(OC[C@@](C)(N)CC(C)C)c(CF)c2)n1 [Example 352, (S)-1-(2-(fluoromethyl)-4-(2-methylpyrimidin-4-yl)phenoxy)-2,4-dimethylpentan-2-amine] | 1.4 nM
COC(=O)Nc1nccc(-c2ccc(OC[C@@](C)(N)CC(C)C)c(Cl)c2)n1 [Example 307, (S)-methyl (4-(4-((2-amino-2,4-dimethylpentyl)oxy)-3-chlorophenyl)pyrimidin-2-yl)carbamate] | 0.9 nM
COC(=O)Nc1nccc(-c2cnc(OC[C@](C)(N)CC(C)C)c(F)c2)n1 [Example 373, (R)-methyl (4-(6-((2-amino-2,4-dimethylpentyl)oxy)-5-fluoropyridin-3-yl)pyrimidin-2-yl)carbamate] | 684 nM
Cc1nccc(-c2cc(F)c(OC[C@@](C)(N)CC(C)C)cc2F)n1 [Example 506, (S)-1-(2,5-difluoro-4-(2-methylpyrimidin-4-yl)phenoxy)-2,4-dimethylpentan-2-amine] | 134 nM
COC(=O)Nc1nccc(-c2ccc(OC[C@@](C)(N)CC(C)C)c(F)c2)n1 [Example 310, (S)-methyl (4-(4-((2-amino-2,4-dimethylpentyl)oxy)-3-fluorophenyl)pyrimidin-2-yl)carbamate] | 9.1 nM
COC(=O)Nc1cc(-c2cc(F)c(OC[C@@](C)(N)CC(C)C)cc2F)ncn1 [Example 507, (S)-methyl (6-(4-((2-amino-2,4-dimethylpentyl)oxy)-2,5-difluorophenyl)pyrimidin-4-yl)carbamate] | 5 nM
COC(=O)Nc1cc(-c2ccc(OC[C@@](C)(N)CC(C)C)c(Cl)c2)cnn1 [Example 301, (S)-methyl (5-(4-((2-amino-2,4-dimethylpentyl)oxy)-3-chlorophenyl)pyridazin-3-yl)carbamate] | 58 nM
COC(=O)Nc1cc(-c2ccc(OCC(N)(CC(C)C)C(F)(F)F)c(C)n2)ccn1 (centres unmarked) [Example 273, methyl 5-(2-amino-4-methyl-2-(trifluoromethyl)pentyloxy)-6-methyl-2,4′-bipyridin-2′-ylcarbamate] | 226 nM
CC(C)C[C@](C)(N)COc1ccc(-c2ccnc(CF)c2)nc1C(F)F [Example 355, (S)-1-((6-(difluoromethyl)-2′-(fluoromethyl)-[2,4′-bipyridin]-5-yl)oxy)-2,4-dimethylpentan-2-amine] | 1.1 nM
